Patent US20190224192A1, “Stable Pharmaceutical Composition of Vortioxetine Hydrobromide” (Cipla Limited, priority 2016, published 2019)
Where a name gives a salt, the structure may show the parent alone.

How the values were obtained:
[1] = in vitro dissolution of premix compared to beta form; assay type: physicochemical; conditions: unit assumed
Source text: FIG. 2: FIGS. 2a and 2b show dissolution data of a Vortioxetine hydrobromide premix according to the present invention compared to the beta form of Vortioxetine hydrobromide.
In one aspect, the present invention provides a Vortioxetine hydrobromide premix having stability and dissolution properties such that it can be easily formulated into pharmaceutically useful composition.

[2] = cited from earlier work
[3] = solid state form stability (conversion of form on stability); assay type: physicochemical
Source text: WO 2016/062860 relates to a pharmaceutical composition comprising amorphous Vortioxetine hydrobromide, a process for the preparation thereof, use thereof and a method for stabilizing Vortioxetine hydrobromide in a pharmaceutical composition.
However, this technique is not desirable in cases where the melting point of the drug to be converted is very high. For the process to work, it is required that the drug undergoes complete melting, which would lead to complete conversion. The melting point of the drug Vortioxetine is very high, in order of 227-230 degrees. The normal temperatures that are employed in the laboratory is around 180 C, maximizing to 200 C. The HME in this case was attempted with Klucel and Kollidone VA 64. […] This could be attributed to the incomplete melting of the drug and thus incomplete form conversion.

in vitro dissolution ([1]; Time in min 15)	in vitro dissolution ([1]; Time in min 30)	in vitro dissolution ([1]; Time in min 60)	in vitro dissolution ([1]; Time in min 120)	in vitro dissolution ([1]; Time in min 240)	in vitro dissolution ([1]; Time in min 480)	in vitro dissolution ([1]; Time in min 600)	in vitro dissolution ([1]; Time in min 720)	Structure (SMILES)	aqueous solubility [2]	solid state form conversion on stability [3]
14%	20%	29%	37%	49%	61%	63%	63%	Br.Cc1ccc(Sc2ccccc2N2CCNCC2)c(C)c1 [Beta Form, Vortioxetine hydrobromide]	about 1.2 mg/ml	–
–	–	–	–	–	–	–	–	Cc1ccc(Sc2ccccc2N2CCNCC2)c(C)c1 [amorphous Vortioxetine hydrobromide, Vortioxetine hydrobromide]	–	gets converted to a more stable crystalline form
